# Source: patent EP0129947A2, “Contraceptive compositions based on esters of levo-norgestrel” (priority 1983, dated 1985)
# What was measured:
# [1] = tested on: female rats; experiment: estrus suppression assay (duration of suppression of vaginal cornification after one subcutaneous injection); type: in vivo, rats of the Sprague-Dawley strain; settings: for effect of formulation on results: aqueous microcrystalline suspension of particle size 3 to 10µ (50% cumulative oversize, Coulter); for durations of suppression: aqueous microcrystalline suspension, subcutaneous; for suppression of estrus compared with DMPA at 16 mg/rat: ester at 8 mg/rat, aqueous microcrystalline suspension (Figure 1); for duration of action in words: cyclic esters of the series of Table 1 and Fig. 1
# Protocol: These were subjected to a biological screening programme designed to uncover new and effective sustained- release injectable contraceptives, the compounds being tested as injectable oily solutions or aqueous suspensions. The initial test was to determine the duration of suppression of estrus in female rats, with DMPA and norethisterone enanthate being used as comparison-standards. The most promising compounds were then tested in primates.
# The bioassay used to determine the duration of action of the contraceptive compositions involved measuring the suppression of estrus in female rats. The compositions were used at four dosage levels, i.e. 2, 4, 8 and 16 mg/rat.
# The long-acting properties of each formulation were determined in estrus suppression assay employing virgin, mature (180-200 g) cycling rats of the Sprague-Dawley strain purchased from Charles River Laboratories, USA. Upon receipt the animals were smeared daily for cyclicity and only those animals showing two consecutive normal cycles were used. Each animal was injected subcutaneously with 0.8 ml of the test preparation on the same day regardless of the stage of the cycle. Each compound was initially tested on ten rats. A series of initial tests with injections of 16 mg/animal were followed by studies at dose levels of 8, 4 and 2 mg/animal where necessary. An aqueous microcrystalline suspension of medroxyprogesterone acetate was used as standard. Daily smears were taken starting on the day after injection and continued until such time that cornification of vaginal epithelium was observed and cycling was re-established. Duration of cornification suppression is expressed as the total number of days minus two. The appearance of cornification was not always followed by the return of normal estrus cycles.
# [2] = pharmacokinetics in the monkey (circulating levo norgestrel after injection); settings: monkey Macaca mulata
# [3] = 8 mg/rat, majority of experiments terminated at 91 days post injection
molecule,measurement,setting,value
C#C[C@]1(OC(=O)C2CCCCC2)CC[C@H]2[C@@H]3CCC4=CC(=NO)CC[C@@H]4[C@H]3CC[C@@]21CC [levo-norgestrel cyclohexylcarboxylate 3-oxime],effect of formulation on results,[1],better results
"CC(=O)O[C@]1(C(C)=O)CC[C@H]2[C@@H]3C[C@H](C)C4=CC(=O)CC[C@]4(C)[C@H]3CC[C@@]21C [DMPA, medroxyprogesterone acetate, reference compound]",durations of suppression,[1]; 2 mg/rat,20.9 days
same,durations of suppression,[1]; 4 mg/rat,28.2 days
same,durations of suppression,[1]; [3],55.5 days
same,durations of suppression,[1]; 16 mg/rat,60.0 days
same,average suppression duration,"[1]; microcrystalline suspension, rat, dose not given",63.7 days
C#C[C@]1(OC(=O)CCC)CC[C@H]2[C@@H]3CCC4=CC(=O)CC[C@@H]4[C@H]3CC[C@@]21CC [levo-norgestrel butanoate],durations of suppression,[1]; 2 mg/rat,34.4 days
same,durations of suppression,[1]; 4 mg/rat,65.1 days
same,durations of suppression,[1]; [3],< 91 days
same,suppression of estrus compared with DMPA at 16 mg/rat,[1],better suppression than DMPA at a dosage of 16 mg/rat
C#C[C@]1(OC(=O)C2CC2)CC[C@H]2[C@@H]3CCC4=CC(=O)CC[C@@H]4[C@H]3CC[C@@]21CC [levo-norgestrel cyclopropylcarboxylate],durations of suppression,[1]; 4 mg/rat,55.6 days
same,durations of suppression,[1]; [3],74.0 days
same,duration of action in words,[1],long-acting
same,suppression of estrus compared with DMPA at 16 mg/rat,[1],better suppression than DMPA at a dosage of 16 mg/rat
C#C[C@]1(OC(=O)C2CCCC2)CC[C@H]2[C@@H]3CCC4=CC(=NO)CC[C@@H]4[C@H]3CC[C@@]21CC [levo-norgestrel cyclopentylcarboxylate 3-oxime],effect of formulation on results,[1],better results
norethisterone enanthate [reference compound],average duration,"[1]; oily solution, rat, dose not given",23.1 days
C#C[C@]1(OC(=O)C2CCC2)CC[C@H]2[C@@H]3CCC4=CC(=O)CC[C@@H]4[C@H]3CC[C@@]21CC [levo-norgestrel cyclobutylcarboxylate],durations of suppression,[1]; 2 mg/rat,31.9 days
same,durations of suppression,[1]; 4 mg/rat,55.7 days
same,durations of suppression,[1]; [3],89.2 days
same,durations of suppression,[1]; 16 mg/rat,> 91 days
same,effect of formulation on return to estrus,"[1]; Figure II: aqueous microcrystalline suspension 3 to 10µ versus solution in sesame oil or in ethyl oleate, groups of ten rats",longer term effect of the ester when micro-dispersed in aqueous medium
same,duration of action in words,[1],long-acting
same,suppression of estrus compared with DMPA at 16 mg/rat,[1]; listed as cyclobutyl carboxylate,better suppression than DMPA at a dosage of 16 mg/rat
same,suppression of estrus compared with DMPA at 16 mg/rat,[1]; listed as cyclobutylcarboxylate,the same inhibition as DMPA at 16 mg
same,activity relative to the aqueous suspension,[1]; microcrystalline suspension in ethyl oleate (Table 11),approximately 40%
same,activity by formulation,"[1]; solution in a 50:50 mixture of ethyl oleate and benzyl benzoate (BB), compared with the suspensions",Further reduction in activity
same,time during which measurable levels of levo norgestrel are still present in the circulation after injection,[2],> 100 days
"C#C[C@]1(OC(=O)C2CCCC2)CC[C@H]2[C@@H]3CCC4=CC(=O)CC[C@@H]4[C@H]3CC[C@@]21CC [cyclopentylcarboxylate, Levo-norgestrel 17β-cyclopentyl carboxylate, reference compound]",effectiveness in words,[1]; 16 mg dose,relatively ineffective
same,duration of action in words,[1],short acting
